# Measurements: ChEMBL document CHEMBL2375345, “New antiprotozoal agents: their synthesis and biological evaluations” (Bioorg Med Chem Lett, 2013)
# Assays:
# [1] = Selectivity index, ratio of CC50 for human MRC5 cells to IC50 for trypomastigote form of Trypanosoma brucei brucei 427; format: functional
# [2] = test system: Trypanosoma cruzi; test: Antiprotozoal activity against epimastigote form of Trypanosoma cruzi Tulahuen 2 assessed as parasite growth inhibition measured at day 5; format: functional, organism-based; conditions: Tulahuen 2, 120 h
# [3] = test system: Trypanosoma brucei rhodesiense; test: Antiprotozoal activity against trypomastigote form of Trypanosoma brucei rhodesiense STIB900 assessed as parasite growth inhibition after 72 hrs by Alamar blue assay; format: functional, organism-based; conditions: STIB900, 72 h
# [4] = Selectivity index, ratio of CC50 for human MRC5 cells to IC50 for amastigote form of Leishmania infantum MHOM/MA(BE)/67; format: functional
# [5] = test system: Trypanosoma brucei brucei; test: Antiprotozoal activity against trypomastigote form of Trypanosoma brucei brucei 427 assessed as parasite growth inhibition; format: functional, organism-based
# [6] = Cytotoxicity against human MRC5 cells assessed as cell viability after 7 days by Alamar blue assay; format: cell-based
# [7] = Lipophilicity, log P of the compound; format: physicochemical; conditions: octanol/water
# [8] = test system: Leishmania infantum; test: Antiprotozoal activity against amastigote form of Leishmania infantum MHOM/MA(BE)/67 infected in mouse peritoneal macrophages assessed as reduction of intracellular parasite burden after 5 days by Giemsa staining method; format: functional, organism-based; conditions: MHOM/MA(BE)/67, 120 h
# [9] = Cytotoxicity against mouse peritoneal macrophages; format: cell-based; conditions: peritoneal macrophage cell
# [10] = Selectivity index, ratio of CC50 for human MRC5 cells to IC50 for trypomastigote form of Trypanosoma brucei rhodesiense STIB900; format: functional
# [11] = Selectivity index, ratio of CC50 for human MRC5 cells to IC50 for epimastigote form of Trypanosoma cruzi Tulahuen 2; format: functional
# [12] = test system: Trypanosoma cruzi; test: Antiprotozoal activity against trypomastigote form of Trypanosoma cruzi Colombian infected in BALB/c mouse assessed as decrease in parasitemia at 100 mg/kg, po administered for 1 week followed by weekly administration measured after 8 months; conditions: 168 h
# [13] = test system: Trypanosoma cruzi; test: Trypanocidal activity against Trypanosoma cruzi
# [14] = test system: Leishmania donovani; test: Antiprotozoal activity against […] form of Leishmania donovani infected in primary macrophages assessed as reduction in intracellular parasite level after 90 mins by Giemsa staining method; format: functional, organism-based; conditions: 1.5 h
SMILES,Ratio CC50/IC50 [1],IC50 [2] [µM],IC50 [3] [µM],Ratio CC50/IC50 [4],IC50 [5] [µM],CC50 at 168 h [6] [µM],logP [7],IC50 [8] [µM],Activity [9],Ratio CC50/IC50 [10],Ratio CC50/IC50 [11],IC50 [12] [µM],IC50 [13] [µM],IC50 [14] [µM]
CC(O)c1cc(F)ccc1Oc1nc2ccc(NC(=O)Nc3cccc([N+](=O)[O-])c3)cc2cc1Cc1ccccc1 (stereo not given),4.31,1,0.25,1.29,0.51,2.2,6.84,1.7,Non-toxic,8.8,2.15,–,–,–
O=[N+]([O-])c1ccc2nc(Oc3ccc(F)cc3C(O)Cn3ccnc3)c(Cc3ccccc3)cc2c1 (stereo not given),14.42,0.25,1.81,12.47,2.18,31.4,–,2.52,Non-toxic,17.37,125.76,–,–,–
COc1nc2ccc(Br)cc2c2c1C(C)(OCC(O)CN)c1ccccc1-2 (stereo not given),5.44,0.47,0.25,3.4,0.25,1.36,3.46,0.4,Non-toxic,5.44,2.89,–,–,–
COc1nc2ccc(Br)cc2c2c1C(C)(OCC(O)CN1CCN(Cc3ccccc3)CC1)c1ccccc1-2 (mixture of isomers),2.51,7.25,1.99,0.59,2.24,5.63,5.85,9.51,–,2.83,0.77,–,–,–
O=C(Cn1ccnc1[N+](=O)[O-])NCc1ccccc1 [BENZNIDAZOLE],–,–,–,–,–,–,–,–,–,–,–,3.66,–,–
COc1nc2ccc(Br)cc2c2c1C(C)(OCC(O)Cn1ccc(-c3cccc(C(F)(F)F)c3)n1)c1ccccc1-2 (stereo not given),10.43,5.35,1.25,4.74,2.31,24.1,7.5,5.08,–,19.29,4.5,–,–,–
CC1CS(=O)(=O)CCN1/N=C/c1ccc([N+](=O)[O-])o1 (stereo not given) [NIFURTIMOX],–,–,–,–,–,–,–,–,–,–,–,–,1.8,–
COc1ccc(NC(=S)Nc2ccc3nc(Oc4ccc(F)cc4C(C)O)c(Cc4ccccc4)cc3c2)cc1 (stereo not given),31.37,5.81,1.31,7.89,2.09,42.3,7.86,8.11,–,30.91,10.27,–,–,–
CC1(OCC2CO2)c2ccccc2-c2c1c(C(F)(F)F)nc1ccc(Br)cc21 (stereo not given),0.47,8.37,5.49,0.14,8.57,4,5.23,27.3,–,0.73,0.48,–,–,–
O=C1c2ccccc2-c2c1c(Nc1ccncc1)nc1ccc(Br)cc21,1.34,0.25,0.25,0.15,0.56,0.75,4.64,5.08,Non-toxic,3,3,–,–,–
COc1ccccc1NC(=O)Nc1ccc2nc(Oc3ccc(F)cc3C(C)O)c(Cc3ccccc3)cc2c1 (stereo not given),9.55,2.89,0.25,–,0.65,6.21,6.72,3.17,Non-toxic,–,2.16,–,–,–
COc1nc2ccc(Br)cc2c2c1C(C)(OCC(O)Cn1ccnc1)c1ccccc1-2 (stereo not given),3.94,2.16,1.17,1.33,2.03,8,3.68,6.01,–,6.83,3.7,–,–,–
CC1(O)c2ccccc2-c2c1c(-n1ccnc1)nc1ccc(Br)cc21 (stereo not given),0.61,1.39,5.93,0.9,18.8,11.5,3.86,12.7,–,1.93,8.23,–,–,–
CC(C)CC(NC(=O)OCC1c2ccccc2-c2ccccc21)C(=O)O/N=C1\c2ccccc2-c2c1c(N1CCN(c3ccccn3)CC1)nc1ccc(Br)cc21 (stereo not given),1.85,7.52,1.52,4.28,7.33,13.6,8.3,3.17,–,8.94,1.8,–,–,–
C[C@@H]1[C@H](O)[C@@H](C)/C=C/C=C/C=C/C=C/C=C/C=C/C=C/[C@H](O[C@@H]2O[C@H](C)[C@@H](O)[C@H](N)[C@@H]2O)C[C@@H]2O[C@](O)(C[C@@H](O)C[C@@H](O)[C@H](O)CC[C@@H](O)C[C@@H](O)CC(=O)O[C@H]1C)C[C@H](O)[C@H]2C(=O)O [AMPHOTERICIN B],–,–,–,–,–,–,–,–,–,–,–,–,–,0.25
